Data from ChEMBL document CHEMBL3301472, “MMV Malaria Box HIV and cytotoxicity screening”.

Key:
Assay type in all cases: toxicity, cell-based
[1] = MMV: MTT Cytotoxicity Assay Day 7 pi of Assay #6 (compound washed out Day 1 pi), U87-CD4-CCR5 cells, % cell death @ 5mM compound; details: human, u87-cd4-ccr5, 5000 µM
[2] = MMV: MTT Cytotoxicity Assay Day 3 pi, U87-CD4-CXCR4 cells, % cell death @ 5mM compound; details: human, u87-cd4-cxcr4, 5000 µM
[3] = MMV: MTT Cytotoxicity Assay Day 7 pi of Assay #7 (compound washed out Day 1 pi), U87-CD4-CXCR4 cells, % cell death @ 5mM compound; details: human, u87-cd4-cxcr4, 5000 µM
[4] = MMV: MTT Cytotoxicity Assay Day 3 pi, U87-CD4-CCR5 cells, % cell death @ 5mM compound; details: human, u87-cd4-ccr5, 5000 µM
[5] = MMV: MTT Cytotoxicity Assay Day 7 pi of Assay #10 (NO washout), U87-CD4-CCR5 cells, % cell death @ 5mM compound; details: human, u87-cd4-ccr5, 5000 µM
[6] = MMV: MTT Cytotoxicity Assay Day 7 pi of Assay #11 (NO washout), U87-CD4-CXCR4 cells, % cell death @ 5mM compound; details: human, u87-cd4-cxcr4, 5000 µM

O=C(Nc1ccc(Cl)c(Cl)c1)Nc1ccc(Cl)c(Cl)c1
% Cell Death [1]: 54 | % Cell Death [2]: 59 | % Cell Death [3]: 82 | % Cell Death [4]: 82 | % Cell Death [5]: 89 | % Cell Death [6]: 116

O=C(CCc1ccccc1)c1ccccc1OCC(O)CN1CCCCC1 (stereo not drawn)
% Cell Death [1]: 12 | % Cell Death [2]: 44 | % Cell Death [3]: 77 | % Cell Death [4]: 53 | % Cell Death [5]: 136 | % Cell Death [6]: 93

COc1cc(C(=O)Nc2ccc(-c3nc4ccccc4[nH]3)cc2)cc(OC)c1OC
% Cell Death [1]: -4 | % Cell Death [2]: 29 | % Cell Death [3]: -7 | % Cell Death [4]: -27 | % Cell Death [5]: 29 | % Cell Death [6]: -49

O=C(CCl)NCCOc1ccc(Cl)cc1Cl
% Cell Death [1]: -19 | % Cell Death [2]: 28 | % Cell Death [3]: -8 | % Cell Death [4]: 15 | % Cell Death [5]: 12 | % Cell Death [6]: 6

CC(Oc1ccc(NC(=O)c2cccs2)cc1)C(=O)c1ccc(Cl)cc1 (stereo not drawn)
% Cell Death [1]: 40 | % Cell Death [2]: 1 | % Cell Death [3]: 60 | % Cell Death [4]: -10 | % Cell Death [5]: 2 | % Cell Death [6]: -5

CCCCNc1nc(NC(C)(C)C)nc(NC(C)(C)C)n1
% Cell Death [1]: 2 | % Cell Death [2]: 61 | % Cell Death [3]: 18 | % Cell Death [4]: -21 | % Cell Death [5]: -7 | % Cell Death [6]: -2

COc1ccc(CNC(=O)c2cc3c(=O)n4ccccc4nc3n(CCc3ccccc3)c2=N)cc1
% Cell Death [1]: -17 | % Cell Death [2]: 37 | % Cell Death [3]: -14 | % Cell Death [4]: 14 | % Cell Death [5]: 0 | % Cell Death [6]: 49

O=C(NCCCN1CCC(N2CCCCC2)CC1)C1=Cc2cc(Br)ccc2OC1
% Cell Death [1]: 31 | % Cell Death [2]: 10 | % Cell Death [3]: -28 | % Cell Death [4]: 52 | % Cell Death [5]: 14 | % Cell Death [6]: -57

O=C(NC1CCN(Cc2ccccc2)CC1)c1cc(C(=O)NC2CCN(Cc3ccccc3)CC2)cc(C(=O)NC2CCN(Cc3ccccc3)CC2)c1
% Cell Death [1]: 14 | % Cell Death [2]: 60 | % Cell Death [3]: 72 | % Cell Death [4]: 12 | % Cell Death [5]: 48 | % Cell Death [6]: 71

CC(=O)c1sc(NC(=O)Nc2ccc(C)cc2C)nc1C
% Cell Death [1]: -30 | % Cell Death [2]: 45 | % Cell Death [3]: -18 | % Cell Death [4]: -1 | % Cell Death [5]: 31 | % Cell Death [6]: 20

COc1ccc(-c2cn3c(C(=O)Nc4ccccc4Cl)c(-c4ccccc4)c4c3n2CCCC4)cc1
% Cell Death [1]: -4 | % Cell Death [2]: 35 | % Cell Death [3]: -5 | % Cell Death [4]: -20 | % Cell Death [5]: 30 | % Cell Death [6]: -35

Cl.Cn1c(=O)n(C)c2cc(CNCCNc3ccnc4cc(Cl)ccc34)ccc21
% Cell Death [1]: 34 | % Cell Death [2]: 65 | % Cell Death [3]: 31 | % Cell Death [4]: 46 | % Cell Death [5]: 23 | % Cell Death [6]: 45

Cc1cc(Nc2ccc(OCc3ccccc3)cc2)nc2cc(O)ccc12
% Cell Death [1]: 18 | % Cell Death [2]: -46 | % Cell Death [3]: 6 | % Cell Death [4]: 23 | % Cell Death [5]: -10 | % Cell Death [6]: -7

O=C(Nc1ccc(-c2nc3ccccc3[nH]2)cc1)c1ccc(Cl)c(Cl)c1
% Cell Death [1]: -9 | % Cell Death [2]: 39 | % Cell Death [3]: 20 | % Cell Death [4]: 38 | % Cell Death [5]: 33 | % Cell Death [6]: -46

Cc1ccccc1OCCSc1nc2ccc(NC(=O)c3cccs3)cc2s1
% Cell Death [1]: 103 | % Cell Death [2]: 101 | % Cell Death [3]: 81 | % Cell Death [4]: 110 | % Cell Death [5]: 107 | % Cell Death [6]: 106

CCOc1cc2c(cc1OCC)C(c1cc(Cl)ccc1O)NCC2 (stereo not drawn)
% Cell Death [1]: -26 | % Cell Death [2]: 42 | % Cell Death [3]: 3 | % Cell Death [4]: 20 | % Cell Death [5]: 17 | % Cell Death [6]: 21

COc1ccc(C2C(C(=O)Nc3cccc(OC)c3)c3ccccc3C(=O)N2C2CCCCC2)cc1 (stereo not drawn)
% Cell Death [1]: 18 | % Cell Death [2]: 15 | % Cell Death [3]: 22 | % Cell Death [4]: -65 | % Cell Death [5]: -8 | % Cell Death [6]: 37

CCOC(=O)c1cnc2ccc(Cl)cc2c1NCCCN(C)C
% Cell Death [1]: 3 | % Cell Death [2]: 26 | % Cell Death [3]: -14 | % Cell Death [4]: 17 | % Cell Death [5]: -6 | % Cell Death [6]: -22

COc1cc(C(=O)ON=C(N)Cc2cccc3ccccc23)cc(OC)c1OC
% Cell Death [1]: -13 | % Cell Death [2]: 32 | % Cell Death [3]: 4 | % Cell Death [4]: 14 | % Cell Death [5]: 100 | % Cell Death [6]: -15

CN1C=C(c2ccc3ccccc3n2)C(c2c[nH]c3ccccc23)c2ccccc21 (stereo not drawn)
% Cell Death [1]: 13 | % Cell Death [2]: 46 | % Cell Death [3]: 38 | % Cell Death [4]: 94 | % Cell Death [5]: 161 | % Cell Death [6]: 0

Oc1c(C(Nc2ccccn2)c2cccc(Oc3ccccc3)c2)ccc2cccnc12 (stereo not drawn)
% Cell Death [1]: 91 | % Cell Death [2]: 101 | % Cell Death [3]: 97 | % Cell Death [4]: 113 | % Cell Death [5]: 139 | % Cell Death [6]: 106

CCOC(=O)c1cnc2c(C)cccc2c1Nc1ccc(C(C)=O)cc1
% Cell Death [1]: 49 | % Cell Death [2]: 76 | % Cell Death [3]: 78 | % Cell Death [4]: 70 | % Cell Death [5]: 69 | % Cell Death [6]: 80

CCc1ccc(CNCC(O)c2ccccc2)cc1.Cl (stereo not drawn)
% Cell Death [1]: -3 | % Cell Death [2]: 37 | % Cell Death [3]: 28 | % Cell Death [4]: -25 | % Cell Death [5]: 2 | % Cell Death [6]: 38

COc1ccc(C(O)(CCC(C)C)C(CN2CCOCC2)c2ccc(Cl)cc2)cc1.Cl (stereo not drawn)
% Cell Death [1]: 48 | % Cell Death [2]: 55 | % Cell Death [3]: 4 | % Cell Death [4]: 72 | % Cell Death [5]: 102 | % Cell Death [6]: 47

COc1ccc(-c2cc(=O)oc3c4c(ccc23)OCN(Cc2ccc(F)cc2)C4)cc1
% Cell Death [1]: 16 | % Cell Death [2]: 21 | % Cell Death [3]: -9 | % Cell Death [4]: 20 | % Cell Death [5]: 29 | % Cell Death [6]: -26

COc1cc(CNCCc2ccc(Cl)cc2)cc(OC)c1O
% Cell Death [1]: -15 | % Cell Death [2]: 35 | % Cell Death [3]: 11 | % Cell Death [4]: -11 | % Cell Death [5]: 18 | % Cell Death [6]: 91

CCCCC(O)(c1ccc(Cl)cc1)C(CN1CCOCC1)c1ccc(Cl)cc1.Cl (stereo not drawn)
% Cell Death [1]: -10 | % Cell Death [2]: 36 | % Cell Death [3]: -16 | % Cell Death [4]: -6 | % Cell Death [5]: 17 | % Cell Death [6]: 41

COc1ccc(OC)c(C2C3=C(CC(C)(C)CC3=O)N(c3ccc(Cl)c(Cl)c3)C3=C2C(=O)CC(C)(C)C3)c1
% Cell Death [1]: 28 | % Cell Death [2]: 31 | % Cell Death [3]: 5 | % Cell Death [4]: 9 | % Cell Death [5]: -4 | % Cell Death [6]: 3

Cc1cc(=O)oc2c1ccc1oc(C(=O)c3ccccc3)c(C)c12
% Cell Death [1]: 4 | % Cell Death [2]: 29 | % Cell Death [3]: -3 | % Cell Death [4]: 10 | % Cell Death [5]: 35 | % Cell Death [6]: -19

Oc1ccc(Br)cc1CN1CCN(Cc2ccc(Cl)cc2)CC1
% Cell Death [1]: 12 | % Cell Death [2]: 69 | % Cell Death [3]: 29 | % Cell Death [4]: 27 | % Cell Death [5]: 46 | % Cell Death [6]: 44

COc1ccc(CCNC(=O)c2cc(S(=O)(=O)N3CC(C)CC(C)C3)ccc2Sc2ccc(F)cc2)cc1OC (stereo not drawn)
% Cell Death [1]: -8 | % Cell Death [2]: 39 | % Cell Death [3]: 14 | % Cell Death [4]: 39 | % Cell Death [5]: 27 | % Cell Death [6]: 29

COc1cc2c3cc1Oc1c(OC)c(OC)cc4c1C(Cc1ccc(O)c(c1)Oc1ccc(cc1)CC3N(C)CC2)N(C)CC4.Cl (stereo not drawn)
% Cell Death [1]: 3 | % Cell Death [2]: 36 | % Cell Death [3]: 32 | % Cell Death [4]: -12 | % Cell Death [5]: 43 | % Cell Death [6]: 83

COc1cc(OC)cc(N2C(=O)N(Cc3ccc(C(C)(C)C)cc3)c3ccccc3S2(=O)=O)c1
% Cell Death [1]: 34 | % Cell Death [2]: 36 | % Cell Death [3]: -10 | % Cell Death [4]: 34 | % Cell Death [5]: 39 | % Cell Death [6]: 64

CCOc1c(Br)cc(C2C(C(=O)OC)=CN(C)C=C2C(=O)OC)cc1OC
% Cell Death [1]: -1 | % Cell Death [2]: 21 | % Cell Death [3]: 19 | % Cell Death [4]: 30 | % Cell Death [5]: 30 | % Cell Death [6]: 30

CC1CC2=C(CC1CNCCCN(C)C)C(C)(C)CCC2 (stereo not drawn)
% Cell Death [1]: -9 | % Cell Death [2]: 36 | % Cell Death [3]: 23 | % Cell Death [4]: -1 | % Cell Death [5]: 19 | % Cell Death [6]: -30

CN(C)c1ccc(N=Cc2ccc(N3CCOCC3)cc2)cc1
% Cell Death [1]: 92 | % Cell Death [2]: 100 | % Cell Death [3]: 97 | % Cell Death [4]: 108 | % Cell Death [5]: 135 | % Cell Death [6]: 109

COc1ccccc1N1C(=N)SC(=Cc2ccc(OCc3ccccc3F)cc2)C1=O
% Cell Death [1]: 23 | % Cell Death [2]: 24 | % Cell Death [3]: 7 | % Cell Death [4]: 17 | % Cell Death [5]: 30 | % Cell Death [6]: 24

CCN1CCN(c2c(C(=O)c3ccccc3)cnc3cc(OC)c(OC)cc23)CC1
% Cell Death [1]: 23 | % Cell Death [2]: 85 | % Cell Death [3]: -11 | % Cell Death [4]: 43 | % Cell Death [5]: 47 | % Cell Death [6]: 99
